Test results taken from ChEMBL document CHEMBL1129712, “Synthesis and biological activities of camphor-based non-peptide growth hormone secretagogues” (Bioorg Med Chem Lett, 1996).

Organism: Rattus norvegicus
Assay: Evaluated for intrinsic GH secretory potency as half maximal release of GH in the rat pituitary cell assay.
Type: functional
Details: Pituitary gland cell

Compound | EC50 [nM]
CC1(C)C2CCC1(CS(=O)(=O)N1CCC3(CCc4ccccc43)CC1)C(NC(=O)C1CCNCC1)C2 (stereo not given) | 9500
CC1(C)C2CCC1(CS(=O)(=O)N1CCC3(CCc4ccccc43)CC1)C(NC(=O)C1CCCN(CCO)C1)C2 (stereo not given) | 300
Cc1ccccc1N1CCN(S(=O)(=O)CC23CCC(CC2NC(=O)CC(C)(C)N)C3(C)C)CC1 (stereo not given) | > 10000
Cc1ccccc1N1CCN(S(=O)(=O)CC23CCC(CC2NC(=O)[C@@H]2CCCNC2)C3(C)C)CC1 (stereo not given in full) | 135
CC1(C)C2CCC1(CS(=O)(=O)N1CCC3(CCc4ccccc43)CC1)C(NC(=O)[C@H]1CCCNC1)C2 (stereo not given in full) | > 1000
C[C@@H](O)CN1CCC[C@@H](C(=O)NC2CC3CCC2(CS(=O)(=O)N2CCC4(CCc5ccccc54)CC2)C3(C)C)C1 (stereo not given in full) | 90
Cc1ccccc1N1CCN(S(=O)(=O)CC23CCC(CC2NC(=O)[C@H]2CCCNC2)C3(C)C)CC1 (stereo not given in full) | > 5000
CC1(C)C2CCC1(CS(=O)(=O)N1CCC3(CCc4ccccc43)CC1)C(NC(=O)[C@@H]1CCCN(C[C@H](O)CO)C1)C2 (stereo not given in full) | 800
CC(C)(N)CC(=O)NC1CC2CCC1(CS(=O)(=O)N1CCC3(CCc4ccccc43)CC1)C2(C)C (stereo not given) | > 10000
CC1(C)C2CCC1(CS(=O)(=O)N1CCC3(CCc4ccccc43)CC1)C(NC(=O)C1CCCCN1)C2 (stereo not given) | > 10000
CC1(C)C2CCC1(CS(=O)(=O)N1CCC3(CCc4ccccc43)CC1)C(NC(=O)C1CN3CCC1CC3)C2 (stereo not given) | > 10000
CC(C)(N)C(=O)NC1CC2CCC1(CS(=O)(=O)N1CCC3(CCc4ccccc43)CC1)C2(C)C (stereo not given) | > 10000
CC(C)(C)OC(=O)N1CCCC(C(=O)NC2CC3CCC2(CS(=O)(=O)N2CCC4(CCc5ccccc54)CC2)C3(C)C)C1 (stereo not given) | > 25000
CC1(C)C2CCC1(CS(=O)(=O)N1CCC3(CCc4ccccc43)CC1)C(NC(=O)[C@@H]1CCCNC1)C2 (stereo partly drawn) [L-162425] | 140
CC1(C)C2CCC1(CS(=O)(=O)N1CCC3(CCc4ccccc43)CC1)C(NC(=O)C1CCCNC1)C2 [L-368112] | 300
